One compound from paper PMC8346516 (Nature Communications, 2021) can be followed below.

This assay addresses T1, Lsm12 (Homo sapiens, UniProt Q3MHD2).
T1 construct: hLsm12-HisE.coli: 6×His-tagged human Lsm12 (195 residues in full length) purified from E. coli
The assay is described as follows: competition […]-NAADP radioligand binding with purified protein; also competition pull-down with immobilized NAADP (Kd […]).

Structures are written as SMILES.

T1 sequence (Q3MHD2 whole entry): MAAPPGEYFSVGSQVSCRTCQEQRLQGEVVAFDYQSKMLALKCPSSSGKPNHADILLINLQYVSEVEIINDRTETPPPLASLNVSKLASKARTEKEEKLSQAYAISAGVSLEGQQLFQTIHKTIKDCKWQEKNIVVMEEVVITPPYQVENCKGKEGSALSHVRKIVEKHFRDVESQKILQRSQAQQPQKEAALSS

The term Kd denotes the concentration at which binding is half-saturated. Compound `Nc1ncnc2c1ncn2[C@@H]1O[C@H](COP(=O)(O)OP(=O)(O)OC[C@H]2O[C@@H]([n+]3cccc(C(=O)[O-])c3)[C@H](O)[C@@H]2O)[C@@H](O)[C@H]1OP(=O)(O)O` [NAADP] gave a Kd of about 20 nM.
